Measurements taken from PubChem BioAssay AID330 (DTP/NCI, 2004).
Inconclusive results and toxic doses are left out. Rule for the calls: active = survival T/C of 150% or more; inactive = T/C below 125% in these data.

System: P388 leukemia ip, CD2F1 mice, survival T/C
Test: NCI In Vivo Anticancer Drug Screen. Data for tumor model P388 Leukemia (intraperitoneal) in CD2F1 (CDF1) mice
Details: endpoint: median survival time, higher = longer survival
Outline: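 Mice carrying the transplanted tumor received test compound or vehicle. Survival was recorded in each group, and the value is the treated-group measurement divided by that of the vehicle-treated control group.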

[1] = dose: 50.0 mg/kg/injection, schedule: Q01DX009 (ip), vehicle: Klucel (hydroxypropylcellulose) (HPC)
[2] = dose: 100.0 mg/kg/injection, schedule: Q01DX009 (ip), vehicle: Klucel (hydroxypropylcellulose) (HPC)
[3] = dose: 200.0 mg/kg/injection, schedule: Q01DX009 (ip), vehicle: Klucel (hydroxypropylcellulose) (HPC)
[4] = dose: 50.0 mg/kg/injection, schedule: Q01DX005 (ip), vehicle: saline with Tween-80
[5] = dose: 100.0 mg/kg/injection, schedule: Q01DX005 (ip), vehicle: saline with Tween-80
[6] = dose: 200.0 mg/kg/injection, schedule: Q01DX005 (ip), vehicle: saline with Tween-80

Measured: T/C

CN(C)c1ccc(C(=N)Cc2ccc3ccccc3n2)cc1
inactive: dose: 37.5 mg/kg/injection, schedule: Q01DX009 (ip), vehicle: Klucel (hydroxypropylcellulose) (HPC) 106 % of control | [1] 92 % of control | dose: 75.0 mg/kg/injection, schedule: Q01DX009 (ip), vehicle: Klucel (hydroxypropylcellulose) (HPC) 98 % of control | [2] 95 % of control | dose: 150.0 mg/kg/injection, schedule: Q01DX009 (ip), vehicle: Klucel (hydroxypropylcellulose) (HPC) 109 % of control | [3] 100 % of control

COC(=O)N1C(C)=Cc2ccccc2C1C#N (centres undefined)
inactive: dose: 50.0 mg/kg/injection, schedule: Q01DX009 (ip), vehicle: suspension in saline 100 % of control | dose: 100.0 mg/kg/injection, schedule: Q01DX009 (ip), vehicle: suspension in saline 98 % of control | dose: 200.0 mg/kg/injection, schedule: Q01DX009 (ip), vehicle: suspension in saline 95 % of control

CN1CC2(c3ccccc3)CN(C)CC(c3ccccc3)(C1)C2=O
inactive: dose: 6.25 mg/kg/injection, schedule: Q01DX009 (ip), vehicle: saline with Tween-80 100 % of control | dose: 12.5 mg/kg/injection, schedule: Q01DX009 (ip), vehicle: saline with Tween-80 86 % of control

CCC[CH2][Sn]([CH2]CCC)([O]c1ccccc1C=Nc1ccc(F)cc1)[O]c1ccccc1C=Nc1ccc(F)cc1
inactive: dose: 6.25 mg/kg/injection, schedule: Q01DX005 (ip), vehicle: saline with Tween-80 116 % of control | dose: 12.5 mg/kg/injection, schedule: Q01DX005 (ip), vehicle: saline with Tween-80 122 % of control

O=C(Nc1ncnc2nc[nH]c12)c1ccccc1
inactive: [1] 107 % of control | [2] 97 % of control | [3] 101 % of control | dose: 400.0 mg/kg/injection, schedule: Q01DX009 (ip), vehicle: Klucel (hydroxypropylcellulose) (HPC) 112 % of control

O=C1OC2CSCC2O1 (centres undefined)
inactive: dose: 50.0 mg/kg/injection, schedule: Q01DX009 (ip), vehicle: saline 96 % of control | dose: 100.0 mg/kg/injection, schedule: Q01DX009 (ip), vehicle: saline 104 % of control | dose: 200.0 mg/kg/injection, schedule: Q01DX009 (ip), vehicle: saline 101 % of control

CC(=O)/C(N=Nc1ccc(F)cc1F)=C(\C)O
inactive: [4] 103 % of control | [5] 103 % of control | [6] 107 % of control

CC(=O)N/C(=C\c1ccccc1)C(=O)NC(C)C(=O)O (centres undefined)
inactive: [4] 89 % of control | [5] 92 % of control | [6] 86 % of control

Cc1ccc(SNc2ccccc2)cc1
inactive: dose: 50.0 mg/kg/injection, schedule: Q04DX003 (ip), vehicle: saline with Tween-80 96 % of control | dose: 100.0 mg/kg/injection, schedule: Q04DX003 (ip), vehicle: saline with Tween-80 96 % of control

CC(NN(C)C(=S)Nc1ccccc1)c1ccccn1 (centres undefined)
inactive: [4] 100 % of control | [5] 103 % of control | [6] 109 % of control

C1=C[N-]c2c3c(ccc2=C1)=CC=C[N-]3.C1=C[N-]c2c3c(ccc2=C1)=CC=C[N-]3.O=S(=O)(O)O.[Cu+2]
inactive: dose: 1.56 mg/kg/injection, schedule: Q04DX002 (ip), vehicle: Klucel (hydroxypropylcellulose) (HPC) 117 % of control | dose: 3.12 mg/kg/injection, schedule: Q04DX002 (ip), vehicle: Klucel (hydroxypropylcellulose) (HPC) 107 % of control | dose: 6.25 mg/kg/injection, schedule: Q04DX002 (ip), vehicle: Klucel (hydroxypropylcellulose) (HPC) 107 % of control | dose: 12.5 mg/kg/injection, schedule: Q04DX002 (ip), vehicle: Klucel (hydroxypropylcellulose) (HPC) 115 % of control

COc1cc(C(C)c2cc3c(cc2OCC(C)=O)OCO3)cc(OC)c1OC (centres undefined)
inactive: dose: 60.0 mg/kg/injection, schedule: Q01DX005 (ip), vehicle: saline with Tween-80 105 % of control | dose: 120.0 mg/kg/injection, schedule: Q01DX005 (ip), vehicle: saline with Tween-80 97 % of control | dose: 240.0 mg/kg/injection, schedule: Q01DX005 (ip), vehicle: saline with Tween-80 106 % of control

O=Cc1c(-c2ccccc2)nc2sccn12
inactive: dose: 50.0 mg/kg/injection, schedule: Q04DX003 (ip), vehicle: Klucel (hydroxypropylcellulose) (HPC) 96 % of control | dose: 100.0 mg/kg/injection, schedule: Q01DX001 (ip), vehicle: Klucel (hydroxypropylcellulose) (HPC) 100 % of control | dose: 100.0 mg/kg/injection, schedule: Q04DX003 (ip), vehicle: Klucel (hydroxypropylcellulose) (HPC) 96 % of control | dose: 200.0 mg/kg/injection, schedule: Q01DX001 (ip), vehicle: Klucel (hydroxypropylcellulose) (HPC) 100 % of control | dose: 200.0 mg/kg/injection, schedule: Q04DX003 (ip), vehicle: Klucel (hydroxypropylcellulose) (HPC) 91 % of control | dose: 400.0 mg/kg/injection, schedule: Q01DX001 (ip), vehicle: Klucel (hydroxypropylcellulose) (HPC) 99 % of control
